According to US12622910B2, “Inhibitors of Bruton's tyrosine kinase and methods of their use” (Janssen Pharmaceutica NV, priority 2021, dated 2026):
Like-named read-outs stand apart in the source and are kept apart here. Marks after values point to notes of the source that are not given here.

Assay: Phase 1 first-in-human study, plasma pharmacokinetics
Type: in vivo
Conditions: for half-life / Tmax / AUC(0-inf) / Cmax / AUC(0-t): male, human, plasma, po
Description: Safety, tolerability, PK, and BTKO were assessed for six doses of compound of Formula (III) oral solution (4, 12, 36, 100, 200, 400 mg) in participants under fasted conditions. The SAD part comprised 10 cohorts of 8 participants each (FIG. 1). In each cohort receiving compound of Formula (III) oral solution (Cohorts 1-9), 6 participants were randomized to receive compound of Formula (III) and 2 to receive placebo. All participants in Cohort 10 received compound of Formula (III) as an oral capsule. All 10 cohorts included 2 sentinel participants who were dosed ˜24 hours prior to the rest of the cohort. In cohorts receiving compound of Formula (III) oral solution, 1 sentinel participant received compound of Formula (III) and the other received placebo.
Six male escalating dose cohorts received a single oral dose of 4, 12, 36, 100, 200, 400 mg compound of Formula (III) or placebo solution under fasted conditions. Gender effects were assessed in 2 female cohorts whose participants received either a 36 or 100 mg dose of compound of Formula (III) or placebo as an oral solution under fasted conditions. Food effects were evaluated in a male cohort receiving compound of Formula (III) 100 mg or placebo as an oral solution after a high-fat breakfast.
Safety, tolerability, and PK of a solid dose formulation of compound of Formula (III) were assessed in an additional male cohort (Cohort 10) that received 3×35 mg (105 mg) of compound of Formula (III) in the fasted state. Since all the participants received the same dose of compound of Formula (III), this cohort was not blinded.
Safety, tolerability, PK, and BTKO following multiple compound of Formula (III) doses were evaluated in 3 dose escalation cohorts with a total of 18 participants (males: 9, females: 9) receiving active study drug. In each cohort, 3 males and 3 females were randomized to receive 36 mg once-daily (QD), 100 mg QD, or 200 mg QD compound of Formula (III) oral solution and 3 participants (males: 2; female: 1) to receive placebo. Two male participants in each cohort served as sentinel participants: one received compound of Formula (III) and other received placebo ˜48 hours prior to other participants in the cohort. All safety and tolerability data (through the follow-up visit), PK data (through at least 24 hours after last dose administration), and all available PD data were reviewed from each cohort before a decision was made to dose escalate.
Sample collection—For the PK assessment of compound of Formula (III), venous blood samples (2 to 4 mL each) were collected predose and at 15 min, 0.5, 1, 1.5, 2, 2.5, 3, 4, 6, 8, 12, 24, 36, 48, and 72 hours post-dose in Part 1. In Part 2, samples were collected predose and at 15 min, 0.5, 1, 1.5, 2, 2.5, 3, 4, 6, 8, 12 hours post-dose on day 1, predose and 1 hour post-dose on days 2-9, and predose and at 15 min, 0.5, 1, 1.5, 2, 2.5, 3, 4, 6, 8, 12, 24, 48, and 72 hours after the last dose on day 10. Plasma samples were analyzed to determine concentrations of compound of Formula (III) using a scientific validated, specific, and sensitive liquid chromatography-mass spectrometry (LC-MS/MS) method.
The PK analysis for the compound of Formula (III) samples was performed using a non-compartmental method with validated Phoenix® WinNonlin® (version 8.0, Certara L.P.).

[1] = 36 mg, single 36 mg oral solution, male fasted
[2] = 100 mg, single 100 mg oral solution, male fasted
[3] = 100 mg, single 100 mg oral solution, male fed (high-fat breakfast)
[4] = 105 mg, single 105 mg (3 × 35 mg) oral capsule, male fasted
[5] = 200 mg, single 200 mg oral solution, male fasted
[6] = 400 mg, single 400 mg oral solution, male fasted
[7] = single 12 mg oral solution, male fasted
[8] = single 100 mg oral solution, female fasted

For `C=CC(=O)N[C@H]1CCC[C@H]1NC(=O)c1sc2nccc3c2c1NC(=O)N3c1cnc(CC(C)C)cc1C` (atropisomer, axis not shown) [compound of Formula (III), N-((1R,2S)-2-Acrylamidocyclopentyl)-5-(S)-(6-isobutyl-4-methylpyridin-3-yl)-4-oxo-4,5-dihydro-3H-1-thia-3,5,8-triazaacenaphthylene-2-carboxamide], the half-life (12 mg, single 12 mg oral solution, male fasted, read-out: t1/2, λz (converted)) was 1.6 h, the Tmax (12 mg, single 12 mg oral solution, male fasted, read-out: tmax, median (min-max)) was 1 h and the AUC(0-inf) [1] was 644 ng·h/mL. It also gave a Cmax [1] of 200 ng/mL, an AUC(0-t) (36 mg, single 36 mg oral solution, male fasted, read-out: AUC0-24 h) of 649 ng·h/mL and an AUC(0-t) (36 mg, single 36 mg oral solution, male fasted, read-out: AUClast) of 649 ng·h/mL. The half-life (36 mg, single 36 mg oral solution, male fasted, read-out: t1/2, dom (converted)) was 1.6 h, the half-life (36 mg, single 36 mg oral solution, male fasted, read-out: t1/2, λz (converted)) was 2.1 h and the Tmax (36 mg, single 36 mg oral solution, male fasted, read-out: tmax, median (min-max)) was 1 h. It also gave an AUC(0-inf) [2] of 20.6 ng·h/mL, a Cmax [2] of 923 ng/mL and an AUC(0-t) (100 mg, single 100 mg oral solution, male fasted, read-out: AUC0-24 h) of 2140 ng·h/mL. It also gave an AUC(0-t) (100 mg, single 100 mg oral solution, male fasted, read-out: AUClast) of 2140 ng·h/mL, a half-life (100 mg, single 100 mg oral solution, male fasted, read-out: t1/2, dom (converted)) of 1.9 h and a half-life (100 mg, single 100 mg oral solution, male fasted, read-out: t1/2, λz (converted)) of 5 h. The Tmax (100 mg, single 100 mg oral solution, male fasted, read-out: tmax, median (min-max)) was 0.5 h, the AUC(0-inf) [3] was 1760 ng·h/mL and the Cmax [3] was 277 ng/mL. For the same molecule, the AUC(0-t) (100 mg, single 100 mg oral solution, male fed (high-fat breakfast), read-out: AUC0-24 h) was 1720 ng·h/mL, the AUC(0-t) (100 mg, single 100 mg oral solution, male fed (high-fat breakfast), read-out: AUClast) was 1750 ng·h/mL and the half-life (100 mg, single 100 mg oral solution, male fed (high-fat breakfast), read-out: t1/2, dom (converted)) was 2 h. The half-life (100 mg, single 100 mg oral solution, male fed (high-fat breakfast), read-out: t1/2, λz (converted)) was 10.8 h, the Tmax (100 mg, single 100 mg oral solution, male fed (high-fat breakfast), read-out: tmax, median (min-max)) was 2.5 h and the AUC(0-inf) [4] was 1500 ng·h/mL. The Cmax [4] was 345 ng/mL, the AUC(0-t) (105 mg, single 105 mg (3 × 35 mg) oral capsule, male fasted, read-out: AUC0-24 h) was 1320 ng·h/mL and the AUC(0-t) (105 mg, single 105 mg (3 × 35 mg) oral capsule, male fasted, read-out: AUClast) was 1450 ng·h/mL. For the same molecule, the half-life (105 mg, single 105 mg (3 × 35 mg) oral capsule, male fasted, read-out: t1/2, dom (converted)) was 1.9 h, the half-life (105 mg, single 105 mg (3 × 35 mg) oral capsule, male fasted, read-out: t1/2, λz (converted)) was 14.2 h and the Tmax (105 mg, single 105 mg (3 × 35 mg) oral capsule, male fasted, read-out: tmax, median (min-max)) was 1.5 h. The AUC(0-inf) [5] was 2780 ng·h/mL, the Cmax [5] was 1210 ng/mL and the AUC(0-t) (200 mg, single 200 mg oral solution, male fasted, read-out: AUC0-24 h) was 2750 ng·h/mL. The AUC(0-t) (200 mg, single 200 mg oral solution, male fasted, read-out: AUClast) was 277 ng·h/mL, the half-life (200 mg, single 200 mg oral solution, male fasted, read-out: t1/2, dom (converted)) was 1.8 h and the half-life (200 mg, single 200 mg oral solution, male fasted, read-out: t1/2, λz (converted)) was 12.9 h. For the same molecule, the Tmax (200 mg, single 200 mg oral solution, male fasted, read-out: tmax, median (min-max)) was 1 h, the AUC(0-inf) [6] was 4200 ng·h/mL and the Cmax [6] was 1920 ng/mL. The AUC(0-t) (400 mg, single 400 mg oral solution, male fasted, read-out: AUC0-24 h) was 3700 ng·h/mL, the AUC(0-t) (400 mg, single 400 mg oral solution, male fasted, read-out: AUClast) was 3830 ng·h/mL and the half-life (400 mg, single 400 mg oral solution, male fasted, read-out: t1/2, dom (converted)) was 2.2 h. It also gave a half-life (400 mg, single 400 mg oral solution, male fasted, read-out: t1/2, λz (converted)) of 13.2 h, a Tmax (400 mg, single 400 mg oral solution, male fasted, read-out: tmax, median (min-max)) of 0.75 h and a half-life (single 4 to 400 mg oral solution, male fasted, read-out: mean t1/2, dom across doses) of 1.5 to 2.2 h. The half-life (single 4 to 400 mg oral solution, male fasted, read-out: mean t1/2, λz across doses) was 1.6 to 13.2 h, the Tmax (single 4 to 400 mg oral solution, male fasted, read-out: median tmax across doses) was 0.5 to 1 h and the “AUC∞/Dose” value (single 4 mg oral solution, male fasted) was 38.9 (12.5) h · ng/mL/mg. The “AUC∞/Dose” value [7] was 26.4 (9.07) h · ng/mL/mg, the Cmax/Dose [7] was 7.33 ng/mL and the “mean Cmax and AUCs, females higher than males by” value (single 36 mg fasted) was 17-27%. The “AUC∞/Dose” value (single 36 mg oral solution, female fasted) was 1.9 (0.5) h · ng/mL/mg, the “AUC∞/Dose” value (single 36 mg oral solution, male fasted) was 17.9 (6.64) h · ng/mL/mg and the “mean Cmax and AUCs, females lower than males by” value (single 100 mg fasted) was 30-35%. The “AUC∞/Dose” value [8] was 13.4 (4.60) h · ng/mL/mg, the “t1/2, λz” value [8] was 11.67 (7.8)^c h and the “AUC∞/Dose” value (single 100 mg oral solution, male fasted) was 20.6 (7.60) h · ng/mL/mg. For the same molecule, the “AUC∞/Dose” value (single 100 mg oral solution, male fed (high-fat breakfast)) was 17.6 (4.20) h · ng/mL/mg, the “Cmax lowered by high-fat meal” value (single 100 mg, fed vs fasted) was “approximately 70%” and the “AUC∞/Dose” value (single 105 mg (3 × 35 mg) oral capsule, male fasted) was 14.3 (7.59) h · ng/mL/mg. The “AUC∞/Dose” value (single 200 mg oral solution, male fasted) was 13.9 (3.80) h · ng/mL/mg and the “AUC∞/Dose” value (single 400 mg oral solution, male fasted) was 9.11 (4.68) h · ng/mL/mg.
